In patent US20260109715A1, “IMIDAZOPYRIDINE DERIVATIVES WITH BICYCLIC STRUCTURE” (PUBLIC UNIVERSITY CORPORATION YOKOHAMA CITY UNIVERSITY, priority 2022, published 2026):
pEC50, pIC50: −log10 of the molar value.

Experiments:
[1] = biological target: human SMG1 enzyme (Homo sapiens, UniProt Q96Q15); assay: Measurement of SMG1 kinase activity (ADP-Glo Kinase Assay); format: biochemical; details: purified human SMG1 enzyme 5 nM, Upf1 peptide substrate, ATP 4 μM; qAC50 synonymous with IC50; read-out: Test Example 1 ADP-Glo IC50
human SMG1 enzyme, sequence (Q96Q15 whole entry): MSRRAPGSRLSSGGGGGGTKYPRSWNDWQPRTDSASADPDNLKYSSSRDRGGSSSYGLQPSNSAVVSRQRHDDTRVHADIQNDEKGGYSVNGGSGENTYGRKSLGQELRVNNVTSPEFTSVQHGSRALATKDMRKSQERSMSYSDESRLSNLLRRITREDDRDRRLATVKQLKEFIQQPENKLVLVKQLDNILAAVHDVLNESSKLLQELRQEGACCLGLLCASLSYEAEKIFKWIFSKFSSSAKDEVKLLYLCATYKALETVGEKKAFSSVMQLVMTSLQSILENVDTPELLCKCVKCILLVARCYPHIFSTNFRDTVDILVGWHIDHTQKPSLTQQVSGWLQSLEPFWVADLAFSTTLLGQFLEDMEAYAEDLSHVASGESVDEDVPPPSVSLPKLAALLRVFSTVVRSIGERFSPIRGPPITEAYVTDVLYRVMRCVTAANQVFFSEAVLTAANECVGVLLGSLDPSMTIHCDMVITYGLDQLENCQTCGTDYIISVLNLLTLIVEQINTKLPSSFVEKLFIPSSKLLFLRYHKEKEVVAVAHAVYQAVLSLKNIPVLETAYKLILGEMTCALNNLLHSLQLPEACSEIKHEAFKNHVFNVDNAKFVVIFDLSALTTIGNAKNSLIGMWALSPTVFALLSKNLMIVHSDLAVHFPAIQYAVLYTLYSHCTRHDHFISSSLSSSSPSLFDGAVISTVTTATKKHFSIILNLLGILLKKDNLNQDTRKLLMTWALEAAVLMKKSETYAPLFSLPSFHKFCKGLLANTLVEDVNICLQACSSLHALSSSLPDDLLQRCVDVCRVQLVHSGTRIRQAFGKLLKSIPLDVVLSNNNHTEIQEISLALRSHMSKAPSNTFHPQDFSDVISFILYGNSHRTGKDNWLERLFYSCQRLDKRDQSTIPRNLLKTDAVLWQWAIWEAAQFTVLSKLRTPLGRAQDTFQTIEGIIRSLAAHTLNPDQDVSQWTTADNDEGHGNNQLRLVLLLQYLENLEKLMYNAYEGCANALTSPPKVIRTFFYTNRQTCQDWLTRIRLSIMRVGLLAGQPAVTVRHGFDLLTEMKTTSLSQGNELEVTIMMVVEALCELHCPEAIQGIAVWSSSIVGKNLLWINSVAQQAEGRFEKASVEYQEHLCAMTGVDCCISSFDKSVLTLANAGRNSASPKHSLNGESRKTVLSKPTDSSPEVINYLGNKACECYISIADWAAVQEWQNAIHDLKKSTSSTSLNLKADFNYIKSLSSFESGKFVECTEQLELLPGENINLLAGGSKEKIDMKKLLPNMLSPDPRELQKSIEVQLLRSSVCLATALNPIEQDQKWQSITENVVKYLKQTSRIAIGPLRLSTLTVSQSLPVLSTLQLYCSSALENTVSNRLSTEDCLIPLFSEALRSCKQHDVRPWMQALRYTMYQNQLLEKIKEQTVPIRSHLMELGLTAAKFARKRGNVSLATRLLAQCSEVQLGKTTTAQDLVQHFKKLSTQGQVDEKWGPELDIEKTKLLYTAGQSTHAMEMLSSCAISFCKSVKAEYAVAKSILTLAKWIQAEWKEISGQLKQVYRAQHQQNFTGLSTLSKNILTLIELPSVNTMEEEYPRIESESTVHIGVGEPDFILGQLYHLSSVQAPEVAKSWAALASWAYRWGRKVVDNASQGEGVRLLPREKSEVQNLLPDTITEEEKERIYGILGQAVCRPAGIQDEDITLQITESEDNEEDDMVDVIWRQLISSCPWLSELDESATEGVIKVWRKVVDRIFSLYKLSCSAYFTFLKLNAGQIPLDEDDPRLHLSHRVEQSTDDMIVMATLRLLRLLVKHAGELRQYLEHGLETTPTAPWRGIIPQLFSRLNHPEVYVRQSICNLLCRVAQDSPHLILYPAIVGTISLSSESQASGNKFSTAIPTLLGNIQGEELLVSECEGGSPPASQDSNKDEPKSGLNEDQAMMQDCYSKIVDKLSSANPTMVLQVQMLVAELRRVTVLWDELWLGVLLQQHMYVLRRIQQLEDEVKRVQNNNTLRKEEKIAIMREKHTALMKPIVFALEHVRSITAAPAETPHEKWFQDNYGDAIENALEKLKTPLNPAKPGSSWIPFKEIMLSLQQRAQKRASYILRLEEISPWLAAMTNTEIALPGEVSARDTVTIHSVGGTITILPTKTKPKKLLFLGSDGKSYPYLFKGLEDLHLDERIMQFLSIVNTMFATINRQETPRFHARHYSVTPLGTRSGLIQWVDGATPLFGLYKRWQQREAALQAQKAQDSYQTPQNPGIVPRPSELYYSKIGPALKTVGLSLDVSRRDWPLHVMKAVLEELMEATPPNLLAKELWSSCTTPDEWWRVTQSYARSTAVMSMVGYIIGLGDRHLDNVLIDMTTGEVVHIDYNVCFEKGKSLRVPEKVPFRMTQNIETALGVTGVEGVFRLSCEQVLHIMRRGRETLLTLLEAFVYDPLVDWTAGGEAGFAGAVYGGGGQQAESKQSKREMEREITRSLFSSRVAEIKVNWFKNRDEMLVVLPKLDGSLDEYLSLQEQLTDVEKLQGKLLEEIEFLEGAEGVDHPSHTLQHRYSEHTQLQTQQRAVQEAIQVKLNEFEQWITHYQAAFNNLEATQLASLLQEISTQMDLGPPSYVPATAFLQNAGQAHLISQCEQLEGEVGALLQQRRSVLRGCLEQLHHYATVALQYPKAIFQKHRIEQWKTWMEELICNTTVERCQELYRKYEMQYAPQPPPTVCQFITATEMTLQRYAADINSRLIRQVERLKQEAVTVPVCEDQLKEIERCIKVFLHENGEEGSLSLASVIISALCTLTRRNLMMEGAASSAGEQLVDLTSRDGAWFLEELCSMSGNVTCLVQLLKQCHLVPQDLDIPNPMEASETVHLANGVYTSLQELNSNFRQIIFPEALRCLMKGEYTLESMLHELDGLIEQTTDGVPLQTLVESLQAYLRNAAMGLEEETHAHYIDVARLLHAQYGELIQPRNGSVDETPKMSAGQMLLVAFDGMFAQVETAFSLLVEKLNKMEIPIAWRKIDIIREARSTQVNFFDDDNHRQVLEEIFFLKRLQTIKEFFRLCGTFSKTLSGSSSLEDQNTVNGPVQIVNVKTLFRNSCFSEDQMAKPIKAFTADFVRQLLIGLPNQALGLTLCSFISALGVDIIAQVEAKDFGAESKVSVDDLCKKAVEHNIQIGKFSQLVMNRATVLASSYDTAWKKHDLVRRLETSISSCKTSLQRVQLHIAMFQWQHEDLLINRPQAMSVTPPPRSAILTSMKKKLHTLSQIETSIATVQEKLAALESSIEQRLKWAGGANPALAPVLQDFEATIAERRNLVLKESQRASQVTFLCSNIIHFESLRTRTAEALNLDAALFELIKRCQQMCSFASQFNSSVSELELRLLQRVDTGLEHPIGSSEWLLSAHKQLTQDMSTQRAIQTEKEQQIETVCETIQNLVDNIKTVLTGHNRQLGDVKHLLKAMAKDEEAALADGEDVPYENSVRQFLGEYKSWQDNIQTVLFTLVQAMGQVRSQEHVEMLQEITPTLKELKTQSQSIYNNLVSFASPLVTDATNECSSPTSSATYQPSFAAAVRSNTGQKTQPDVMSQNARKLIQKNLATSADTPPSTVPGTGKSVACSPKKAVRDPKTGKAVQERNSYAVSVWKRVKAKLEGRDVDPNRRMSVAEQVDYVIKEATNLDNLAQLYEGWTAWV
In short: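 Purified human SMG1 (5 nM) preincubated with compound (1% DMSO) 15 min at room temperature in HEPES pH 7.5 buffer with MnCl2, then reacted 60 min with Upf1 peptide (8 μg/mL) and 4 μM ATP. ADP formed measured by ADP-Glo luminescence; IC50 by 4-parameter logistic fit, normalised to DMSO (0%) and enzyme-free (−100%) wells.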

[2] = system: Snhg1 transcript (NMD target gene) in EMT6 murine breast cancer cell line; assay: Measurement of NMD inhibitory activity in cells (increase in Snhg1 transcript, real-time PCR); parameters: species or system mouse; details: Mus musculus, 6 hours treatment, concentration giving 1/2 of maximum Snhg1 fold change of positive control, read-out: Test Example 2 Cell-based Snhg1 EC50
In short: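 EMT6 cells treated with serially diluted compound (2% DMSO final) for 6 h; Snhg1 transcript quantified by real-time PCR (ΔΔCT, Tbp endogenous control, untreated wells set to 1). EC50 taken as concentration giving half the maximum fold change of a known NMD inhibitor positive control.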

[3] = system: Snhg1 transcript in tumor tissues of mice subcutaneously implanted with EMT6 murine breast cancer cell line; assay: Evaluation of NMD inhibitory activity in vivo (Snhg1 transcript in EMT6 tumor tissue after oral administration); details: 6 hours after administration, BALB/c mice
Description: The NMD inhibitory activity of a compound of the present invention or a pharmaceutically acceptable salt thereof in vivo can be measured, for example, by the method described below. Using mice subcutaneously implanted with EMT6 murine breast cancer cell line, tumor tissues 6 hours after oral administration of a test substance are excised, and the increase in Snhg1 transcript is quantified as an indicator of NMD inhibition in the tumor, in the same manner as in the in vitro method.
In this test, NMD inhibitory activity in tumor tissues was evaluated when a test substance was orally administered to mice subcutaneously implanted with EMT6 murine breast cancer cell line. As an indicator of NMD inhibitory activity, the increase in the transcript of Snhg1, an NMD target gene, was quantified. First, BALB/c mice were subcutaneously implanted with EMT6 cells (ATCC), and engraftment was confirmed 7 days later. Six hours after administration of the test substance, mice were euthanized, and the collected tumor tissues were cryopreserved. RNA was extracted from the tumor tissues using the illustra RNAspin Mini RNA Isolation kit (GE Healthcare Life Sciences). After synthesizing cDNA using the High-Capacity cDNA Reverse Transcription Kits (Applied Biosystems, 4368813), the cDNA was mixed with PrimeTime Gene Expression Master Mix (Integrated DNA Technologies) and various probes, and gene expression was quantified by QuantStudio 6 Flex (Thermo Fisher Scientific Inc.). For the probe for the Snhg1 gene, which is an NMD target, Mm.PT.58.44039547 (FAM) (Integrated DNA Technologies) was used, and for the probe for the Gapdh gene, which is an endogenous control, Mm99999915_g2 (VIC-PL) (Applied Biosystems) was used. The relative quantification of Snhg1 transcripts in each sample was calculated by the ΔΔCT method using Gapdh as an endogenous control, and the expression level of Snhg1 in each test substance administration group was calculated by setting the expression level of the Vehicle group (0.5% methylcellulose administration group) to 1.

| SMILES | pIC50 [1] | pEC50 [2] | Snhg1 fold change ([3]; 10 mg/kg oral) | Snhg1 fold change ([3]; 25 mg/kg oral) | Snhg1 fold change ([3]; 12.5 mg/kg oral) |
| --- | --- | --- | --- | --- | --- |
| CCc1nc(Cl)cc2[nH]c(-c3cc4c(-c5c(C6CC6)nn(C(F)F)c5C)nccc4[nH]c3=O)nc12 [Example 92, 3-(6-chloro-4-ethyl-1H-imidazo[4,5-c]pyridin-2-yl)-5-[3-cyclopropyl-1-(difluoromethyl)-5-methyl-1H-pyrazol-4-yl]-1,6-naphthyridin-2(1H)-one] | 8.72 | 7.70 | 6.5 | – | – |
| Cc1nn(C(F)F)c(C)c1-c1nccc2[nH]c(=O)c(-c3nc4c(N5C[C@@H](O)C[C@H]5C)nc(Cl)cc4[nH]3)cc12 [Example 85, 3-{6-chloro-4-[(2R,4S)-4-hydroxy-2-methylpyrrolidin-1-yl]-1H-imidazo[4,5-c]pyridin-2-yl}-5-[1-(difluoromethyl)-3,5-dimethyl-1H-pyrazol-4-yl]-1,6-naphthyridin-2(1H)-one] | 9.41 | 9.33 | 6.9 | – | – |
| [2H]C([2H])([2H])Oc1ccccc1-c1nccc2[nH]c(=O)c(-c3nc4c(CC)nc(Cl)cc4[nH]3)cc12 [Example 37, 3-(6-chloro-4-ethyl-1H-imidazo[4,5-c]pyridin-2-yl)-5-{2-[(^2H3)methyloxy]phenyl}-1,6-naphthyridin-2(1H)-one] | 9.44 | 8.03 | 8.4 | – | – |
| CS(=O)(=O)O.Cc1nn(C(F)F)c(C)c1-c1nccc2[nH]c(=O)c(-c3nc4c(N5CC[C@H]5C)nc(Cl)cc4[nH]3)cc12 [Example 149, 3-{6-chloro-4-[(2R)-2-methylazetidin-1-yl]-1H-imidazo[4,5-c]pyridin-2-yl}-5-[1-(difluoromethyl)-3,5-dimethyl-1H-pyrazol-4-yl]-1,6-naphthyridin-2(1H)-one methanesulfonate] | 9.17 | 9.21 | 12 | – | – |
| COc1ccccc1-c1nccc2[nH]c(=O)c(-c3nc4cnc(Cl)cc4[nH]3)cc12 [Example 34, 3-(6-chloro-1H-imidazo[4,5-c]pyridin-2-y1)-5-(2-methoxyphenyl)-1,6-naphthyridin-2(1H)-one] | 8.66 | 7.60 | – | 6.2 | – |
| CCc1nc(Cl)cc2[nH]c(N3Cc4c(ccnc4-c4cnc(C5CC5)cc4OC)NC3=O)nc12.CS(=O)(=O)O [Example 154, 3-(6-chloro-4-ethyl-1H-imidazo[4,5-c]pyridin-2-yl)-5-(6-cyclopropyl-4-methoxypyridin-3-yl)-3,4-dihydropyrido[4,3-d]pyrimidin-2(1H)-one methanesulfonate] | 9.28 | 9.30 | 10 | – | – |
| COc1ncccc1-c1nccc2[nH]c(=O)c(-c3nc4c(NCC(F)(F)F)nc(Cl)cc4[nH]3)cc12.CS(=O)(=O)O [Example 142, 3-{6-chloro-4-[(2,2,2-trifluoroethyl)amino]-1H-imidazo[4,5-c]pyridin-2-yl}-5-(2-methoxypyridin-3-yl)-1,6-naphthyridin-2(1H)-one methanesulfonate] | 9.20 | 8.43 | 11 | – | – |
| CS(=O)(=O)O.[2H]C([2H])([2H])Oc1cccc(F)c1-c1nccc2[nH]c(=O)c(-c3nc4cnc(Cl)cc4[nH]3)cc12 [Example 135, 3-(6-chloro-1H-imidazo[4,5-c]pyridin-2-yl)-5-{2-fluoro-6-[(2H3)methyloxy]phenyl}-1,6-naphthyridin-2(1H)-one methanesulfonate] | 8.66 | 7.41 | – | – | 10 |

The next lines start with results.

| pIC50 [1] | pEC50 [2] | SMILES | Snhg1 fold change ([3]; 10 mg/kg oral) | Snhg1 fold change ([3]; 25 mg/kg oral) | Snhg1 fold change ([3]; 12.5 mg/kg oral) |
| --- | --- | --- | --- | --- | --- |
| 8.46 | 7.30 | CS(=O)(=O)O.Cc1nc(Cl)cc2[nH]c(-c3cc4c(-c5ccccc5OC(F)F)nccc4[nH]c3=O)nc12 [Example 132, 3-(6-chloro-4-methyl-1H-imidazo[4,5-c]pyridin-2-yl)-5-[2-(difluoromethoxy)phenyl]-1,6-naphthyridin-2(1H)-one methanesulfonate] | 7.4 | – | – |
| 9.43 | 8.51 | CCc1nc(Cl)cc2[nH]c(-c3cc4c(-c5cnc(C(F)F)cc5OC)nccc4[nH]c3=O)nc12.CS(=O)(=O)O [Example 141, 3-(6-chloro-4-ethyl-1H-imidazo[4,5-c]pyridin-2-yl)-5-[6-(difluoromethyl)-4-methoxypyridin-3-yl]-1,6-naphthyridin-2(1H)-one methanesulfonate] | 8.4 | – | – |
| 9.07 | 7.92 | COc1ncccc1-c1nccc2[nH]c(=O)c(-c3nc4c(NCC(F)F)nc(Cl)cc4[nH]3)cc12.CS(=O)(=O)O [Example 143, 3-{6-chloro-4-[(2,2-difluoroethyl)amino]-1H-imidazo[4,5-c]pyridin-2-yl}-5-(2-methoxypyridin-3-yl)-1,6-naphthyridin-2(1H)-one methanesulfonate] | 8.5 | – | – |
| 9.44 | 8.74 | CCc1nc(Cl)cc2[nH]c(-c3cc4c(-c5cnc(C6CC6)cc5OC)nccc4[nH]c3=O)nc12.CS(=O)(=O)O [Example 138, 3-(6-chloro-4-ethyl-1H-imidazo[4,5-c]pyridin-2-yl)-5-(6-cyclopropyl-4-methoxypyridin-3-yl)-1,6-naphthyridin-2(1H)-one methanesulfonate] | 12 | – | – |
| 8.92 | 8.51 | CCc1nc(Cl)cc2[nH]c(-c3cc4c(-c5cnc(C(F)(F)F)cc5OC)nccc4[nH]c3=O)nc12.CS(=O)(=O)O [Example 145, 3-(6-chloro-4-ethyl-1H-imidazo[4,5-c]pyridin-2-yl)-5-[4-methoxy-6-(trifluoromethyl)pyridin-3-yl]-1,6-naphthyridin-2(1H)-one methanesulfonate] | 8.9 | – | – |
| 8.46 | 7.77 | CS(=O)(=O)O.Cc1ccccc1-c1nccc2[nH]c(=O)c(-c3nc4c(NCC(F)(F)F)nc(Cl)cc4[nH]3)cc12 [Example 129, 3-{6-chloro-4-[(2,2,2-trifluoroethyl)amino]-1H-imidazo[4,5-c]pyridin-2-yl}-5-(2-methylphenyl)-1,6-naphthyridin-2(1H)-one methanesulfonate] | 9.0 | – | – |
| 9.11 | 7.66 | COc1ccc(F)cc1-c1nccc2[nH]c(=O)c(-c3nc4c(C)nc(Cl)cc4[nH]3)cc12.CS(=O)(=O)O [Example 131, 3-(6-chloro-4-methyl-1H-imidazo[4,5-c]pyridin-2-yl)-5-(5-fluoro-2-methoxyphenyl)-1,6-naphthyridin-2(1H)-one methanesulfonate] | 7.1 | – | – |
| 9.51 | 8.37 | CCc1cc(OC)c(-c2nccc3[nH]c(=O)c(-c4nc5c(CC)nc(Cl)cc5[nH]4)cc23)cn1.CS(=O)(=O)O [Example 139, 3-(6-chloro-4-ethyl-1H-imidazo[4,5-c]pyridin-2-yl)-5-(6-ethyl-4-methoxypyridin-3-yl)-1,6-naphthyridin-2(1H)-one methanesulfonate] | 7.5 | – | – |
| 8.92 | 7.96 | CCc1nc(Cl)cc2[nH]c(-c3cc4c(-c5cc(F)ccc5OC)nccc4[nH]c3=O)nc12 [Example 36, 3-(6-chloro-4-ethyl-1H-imidazo[4,5-c]pyridin-2-yl)-5-(5-fluoro-2-methoxyphenyl)-1,6-naphthyridin-2(1H)-one] | 7.5 | – | – |
| 8.89 | 7.47 | Cc1nc(Cl)cc2[nH]c(-c3cc4c(-c5c(F)cccc5Cl)nccc4[nH]c3=O)nc12 [Example 31, 5-(2-chloro-6-fluorophenyl)-3-(6-chloro-4-methyl-1H-imidazo[4,5-c]pyridin-2-y1)-1,6-naphthyridin-2(1H)-one] | 5.5 | – | – |
| 9.31 | 8.42 | CCc1nc(Cl)cc2[nH]c(-c3cc4c(-c5cnc(OC(F)F)cc5OC)nccc4[nH]c3=O)nc12.CS(=O)(=O)O [Example 146, 3-(6-chloro-4-ethyl-1H-imidazo[4,5-c]pyridin-2-yl)-5-[6-(difluoromethoxy)-4-methoxypyridin-3-yl]-1,6-naphthyridin-2(1H)-one methanesulfonate] | 10 | – | – |
